The record followed here is ChEMBL document CHEMBL2062520, “Synthesis and in vitro antimalarial activity of a series of bisquinoline and bispyrrolo[1,2a]quinoxaline compounds” (Eur J Med Chem, 2012).

One data set relates to CHO. The experiment in a line: Cytotoxicity against CHO cells by MTT assay. Type of data set: cell-based. The settings on record: Cricetulus griseus. In general terms: Formazan colour is commonly taken as a measure of viable cells.
Data set [1] is described as follows: Aqueous solubility of the compound in phosphate buffer at pH 5.5 after 24 hrs by HPLC analysis. It is filed as physicochemical.
For data set [2], the system named is Plasmodium falciparum. Put plainly: Antimalarial activity against asexual erythrocyte stages of chloroquine-sensitive Plasmodium falciparum D10. It is filed as functional, organism-based.
The test system of data set [3] is Plasmodium falciparum. Put plainly: Antimalarial activity against asexual erythrocyte stages of chloroquine-resistant Plasmodium falciparum Dd2. Type of data set: functional, organism-based.
The test system of data set [4] is Plasmodium falciparum. Put plainly: Resistant index, ratio of IC50 for chloroquine-resistant Plasmodium falciparum Dd2 to IC50 for chloroquine-sensitive Plasmodium falciparum D10. It is filed as functional.
A short description of another data set: physchem. The settings on record: octanol/phosphate buffered saline.
Data set [5] can be described thus: Selectivity index, ratio of IC50 for CHO cells to IC50 for chloroquine-sensitive Plasmodium falciparum D10. Type of data set: toxicity, cell-based. The settings on record: hamster, read-out: Ratio IC50.
A further data set concerns TK-10. The experiment in a line: Cytotoxicity against human TK10 cells after 48 hrs by sulforhodamine B assay. The following applies: for GI50 / TGI / CC50: Homo sapiens, TK-10, 48 h; for CC50: read-out: LC50 (the source's name). It is filed as functional.
In a further data set the test system is UACC-62. Put plainly: Cytotoxicity against human UACC62 cells after 48 hrs by sulforhodamine B assay. Type of data set: functional. The following applies: for GI50 / TGI / CC50: Homo sapiens, UACC-62, 48 h; for CC50: read-out: LC50 (the source's name).
The test system of a further data set is MCF7. The experiment in a line: Cytotoxicity against human MCF7 cells after 48 hrs by sulforhodamine B assay. The settings on record: for GI50 / TGI / CC50: Homo sapiens, MCF7, 48 h; for CC50: read-out: LC50 (the source's name). Type of data set: functional.

The structures appear in SMILES notation. Values after ≈ are worked out from the molar mass of the structure shown.

Description for physchem: Octanol-phosphate buffered saline distribution coefficient, log D of the compound at 2 mg after 48 hrs by HPLC analysis

In general, IC50 refers to the concentration that inhibits the measured activity by half. `CC[C@H]1CN2CCc3cc(OC)c(OC)cc3[C@@H]2C[C@@H]1C[C@H]1NCCc2cc(OC)c(OC)cc21` [EMETINE] gave an IC50 with CHO of 0.3 µM.
What is called solubility is how much of the substance goes into solution per volume. Read a high solubility as a readily soluble substance. As a reminder, the logD is lipophilicity at a set pH, counting ionised and neutral species. `Cc1cccc2nccc(NCCCNCCNc3ccnc4cccc(C)c34)c12` gave a solubility at 24 h in data set [1] of 28.2 mM (≈ 11.3 mg/mL). Further, the results for the IC50 in the data set with Plasmodium falciparum [2] and in the data set with Plasmodium falciparum [3] were 214 nM and 105 nM, respectively. For the same molecule, in the data set with Plasmodium falciparum [4], the “Ratio IC50” value was 0.5. This molecule also came in with a logD at 48 h in “physchem” of 0.32.
Usually GI50 stands for the concentration giving 50% growth inhibition. The TGI is the concentration at which net growth stops. Lower therefore signals greater sensitivity of the cells. `Clc1ccc2c(NCCCNCCNc3ccnc4cc(Cl)ccc34)ccnc2c1` had a solubility at 24 h in data set [1] of 23.5 mM (≈ 10.4 mg/mL). Also, the IC50 came out at 66.1 nM in the data set with Plasmodium falciparum [2], 56.4 nM in the data set with Plasmodium falciparum [3] and 3.1 µM in the data set with CHO. Further, the “Ratio IC50” value with Plasmodium falciparum [4] turned out to be 0.9. Besides, the selectivity ratio in [5] worked out at 47. Further, the LC100 in the data set on TK-10, in the data set on UACC-62 and with MCF7 was >100 µM each time. Further, the values for the GI50 in the data set on TK-10, with UACC-62 and in the data set on MCF7 were 1230 nM, 2070 nM and 600 nM, respectively. For the same molecule, the TGI with TK-10 was 4.25 µM; in the data set on UACC-62, 4.89 µM; in the data set with MCF7, 2790 nM. The CC50 came out at 7.27 µM in the data set with TK-10, 7.72 µM in the data set on UACC-62 and 7.21 µM in the data set with MCF7. The same molecule showed a logD at 48 h in the data set “physchem” of 0.3.
Turning to `Cc1cccc2nccc(NCCCNCCCNc3ccnc4cccc(C)c34)c12`, the concentration in solution in data set [1] (solubility at 24 h) came to 27.9 mM (≈ 11.5 mg/mL). Further, the values for the concentration for half-maximal inhibition (IC50) in the data set with Plasmodium falciparum [2], in the data set on Plasmodium falciparum [3] and with CHO were 129 nM, 80.2 nM and 132 µM, respectively. The “Ratio IC50” value in the data set with Plasmodium falciparum [4] is 0.6. Further, the selectivity ratio in data set [5] was determined as 1024. The molecule further gave a pH-dependent lipophilicity (logD) at 48 h in the data set “physchem” of 0.14.
Regarding `Clc1ccc2c(NCCNCCNCCNc3ccnc4cc(Cl)ccc34)ccnc2c1`, the concentration in solution in data set [1] (solubility at 24 h) was 38.7 mM (≈ 18.2 mg/mL). Moreover, the IC50 with Plasmodium falciparum [2] is 87.7 nM; in the data set on Plasmodium falciparum [3], 35.5 nM; with CHO, 8.01 µM. Moreover, the “Ratio IC50” value in the data set on Plasmodium falciparum [4] amounted to 0.4. Moreover, the selectivity ratio in data set [5] was 93. The LC100 in the data set on TK-10, in the data set on UACC-62 and in the data set with MCF7 was >100 µM throughout. In addition, the results for the 50% growth inhibitory concentration (GI50) in the data set with TK-10, with UACC-62 and in the data set with MCF7 were 5890 nM, 2870 nM and 760 nM, respectively. Also, the TGI in the data set on TK-10 was 5.36 µM; with UACC-62 it was 5.3 µM; in the data set with MCF7 it was 3530 nM. Moreover, the CC50 came out at 7.71 µM in the data set with TK-10, 7.74 µM in the data set on UACC-62 and 7.37 µM with MCF7. The molecule further gave a logD at 48 h in the data set “physchem” of 0.28.
In turn, `Cc1cccc2nccc(NCCNCCNc3ccnc4cccc(C)c34)c12` had a solubility at 24 h in data set [1] of 29.5 mM (≈ 11.4 mg/mL). The IC50 with Plasmodium falciparum [2] was 741 nM; with Plasmodium falciparum [3], 507 nM. Besides, the “Ratio IC50” value in the data set on Plasmodium falciparum [4] is recorded as 0.7. Also, in the data set “physchem”, the pH-dependent lipophilicity (logD) at 48 h came to 0.05.
Taken in the same sequence, the figures for `Cc1cccc2nccc(NCCNCCNCCNc3ccnc4cccc(C)c34)c12` were 38.9 mM (≈ 16.7 mg/mL), 1420 nM, 1100 nM, 0.8 and 0.4.
Turning to `Cc1cccc2nccc(NCCCNCCNCCCNc3ccnc4cccc(C)c34)c12`, in [1], the solubility at 24 h was determined as 36.5 mM (≈ 16.7 mg/mL). Further, the IC50 was 922 nM in the data set on Plasmodium falciparum [2], 608 nM in the data set on Plasmodium falciparum [3] and 174 µM in the data set with CHO. Also, the “Ratio IC50” value with Plasmodium falciparum [4] is listed as 0.7. The selectivity ratio in data set [5] stood at 187. The molecule further displayed a logD at 48 h in “physchem” of 0.34.
Take `Clc1ccc2c(NCCNCCNc3ccnc4cc(Cl)ccc34)ccnc2c1`: the solubility at 24 h in [1] amounted to 32 mM (≈ 13.6 mg/mL). Also, the logD at 48 h in the data set “physchem” was 0.3.
Molecule `CN(CCCNc1ccnc2cc(Cl)ccc12)CCCNc1ccnc2cc(Cl)ccc12` came in with a solubility at 24 h in [1] of 32.9 mM (≈ 15.4 mg/mL). The IC50 with Plasmodium falciparum [2] worked out at 37.4 nM; in the data set with Plasmodium falciparum [3], 71.1 nM; with CHO, 7.8 µM. In addition, in the data set with Plasmodium falciparum [4], the “Ratio IC50” value came out at 1.9. In addition, the selectivity ratio in [5] came to 211. Further, the LC100 in the data set with TK-10 is 45.12 µM; in the data set on UACC-62 it was >100 µM; with MCF7, >100 µM. Further, the GI50 in the data set with TK-10 was 540 nM; with UACC-62, 360 nM; in the data set with MCF7 it was 390 nM. Moreover, the TGI is 1 µM in the data set on TK-10, 0.64 µM with UACC-62 and 690 nM with MCF7. Also, the CC50 in the data set on TK-10 is 5.61 µM; in the data set on UACC-62, 0.92 µM; in the data set on MCF7 it was 1.2 µM. Moreover, the logD at 48 h in the data set “physchem” is 0.29.
The molecule `c1ccc2c(c1)nc(NCCNCCNc1nc3ccccc3n3cccc13)c1cccn12` yielded a solubility at 24 h in [1] of 27.5 mM (≈ 12 mg/mL). The values for the IC50 in the data set on Plasmodium falciparum [2] and in the data set with Plasmodium falciparum [3] were 554 nM and 1900 nM, respectively. Besides, the “Ratio IC50” value in the data set on Plasmodium falciparum [4] is 3.4. The molecule further registered a logD at 48 h in the data set “physchem” of 0.39.
As to `c1ccc2c(c1)nc(NCCCNCCNc1nc3ccccc3n3cccc13)c1cccn12`, the concentration in solution in [1] (solubility at 24 h) was 28.6 mM (≈ 12.8 mg/mL). Further, the IC50 in the data set on Plasmodium falciparum [2] came out at 199 nM; in the data set on Plasmodium falciparum [3], 1380 nM; in the data set on CHO it was 2.8 µM. Further, the “Ratio IC50” value in the data set with Plasmodium falciparum [4] was found to be 6.9. Also, the selectivity ratio in data set [5] was 14. The same molecule displayed a logD at 48 h in the data set “physchem” of 0.34.
Turning to `Clc1ccc2c(NCCCNCCCNc3ccnc4cc(Cl)ccc34)ccnc2c1`, in data set [1], the solubility at 24 h amounted to 28.9 mM (≈ 13.1 mg/mL). In “physchem”, the logD at 48 h turned out to be 0.28.
Consider `c1ccc2c(c1)nc(NCCCNCCCNc1nc3ccccc3n3cccc13)c1cccn12`, for which the concentration in solution in data set [1] (solubility at 24 h) came to 24.1 mM (≈ 11.2 mg/mL). The half-maximal inhibitory concentration (IC50) came out at 75.3 nM with Plasmodium falciparum [2], 356 nM with Plasmodium falciparum [3] and 3.8 µM in the data set on CHO. Besides, the “Ratio IC50” value in the data set with Plasmodium falciparum [4] is given as 4.7. In addition, in [5], the selectivity ratio came to 51. Besides, the logD at 48 h in the data set “physchem” was found to be 0.32.
For `Cc1cccc2nccc(NCCCN(C)CCCNc3ccnc4cccc(C)c34)c12`, the solubility at 24 h in data set [1] stood at 31.2 mM (≈ 13.3 mg/mL). Further, the concentration for half-maximal inhibition (IC50) came to 185 nM in the data set with Plasmodium falciparum [2] and 1910 nM in the data set with Plasmodium falciparum [3]. The “Ratio IC50” value with Plasmodium falciparum [4] is on record as 10.4. In “physchem”, this molecule had a logD at 48 h of 0.16.
Consider `CN(CCCNc1nc2ccccc2n2cccc12)CCCNc1nc2ccccc2n2cccc12`, for which the solubility at 24 h in [1] was 30.2 mM (≈ 14.4 mg/mL). The IC50 is 112 nM with Plasmodium falciparum [2], 724 nM in the data set on Plasmodium falciparum [3] and 4.3 µM with CHO. Besides, the “Ratio IC50” value with Plasmodium falciparum [4] was found to be 6.5. Moreover, the selectivity ratio in data set [5] came to 39. In addition, in the data set “physchem”, the logD at 48 h was found to be 0.36.
On to `c1ccc2c(c1)nc(NCCNCCNCCNc1nc3ccccc3n3cccc13)c1cccn12`, for which the solubility at 24 h in data set [1] was 34 mM (≈ 16.3 mg/mL). Moreover, the values for the IC50 in the data set with Plasmodium falciparum [2], with Plasmodium falciparum [3] and with CHO were 1800 nM, 4170 nM and 8.1 µM, respectively. Besides, the “Ratio IC50” value in the data set with Plasmodium falciparum [4] stood at 2.3. Moreover, in [5], the selectivity ratio amounted to 4.5. Moreover, in the data set “physchem”, the log distribution coefficient (logD) at 48 h is -0.02.
`Clc1ccc2c(NCCCNCCNCCCNc3ccnc4cc(Cl)ccc34)ccnc2c1` came in with a solubility at 24 h in data set [1] of 18.9 mM (≈ 9.42 mg/mL). Besides, the IC50 in the data set with Plasmodium falciparum [2] is 129 nM; with Plasmodium falciparum [3], 49.5 nM; in the data set with CHO it was 13 µM. In the data set with Plasmodium falciparum [4], the “Ratio IC50” value stood at 0.4. Further, the selectivity ratio in [5] came to 102. The LC100 in the data set on TK-10, in the data set on UACC-62 and with MCF7 was >100 µM throughout. Also, the GI50 in the data set with TK-10 is 2100 nM; with UACC-62, 1060 nM; with MCF7, 380 nM. Also, the TGI stood at 4.74 µM with TK-10, 4.09 µM in the data set with UACC-62 and 1650 nM in the data set on MCF7. Moreover, the CC50 with TK-10 is 7.38 µM; with UACC-62 it was 7.11 µM; with MCF7, 6.43 µM. The logD at 48 h in “physchem” came to 0.3.
